In data set [1] the test system is DU145 (human prostate cancer cells). As to the kind of experiment: Antiproliferative activity, WST1 colorimetric test, DU145. It is filed as cell-based. The settings on record: DU-145, 96 hours treatment, up to 10 μM, read-out: Cl50 on the cell proliferation of the lines DU-145. On the procedure:
(§1) iii) Characterization of the Antiproliferative Activity:
(§2) By way of example, the effect of a treatment on two human cell lines Mia-Paca2 and DU145 by the compounds of the examples described previously will be studied. The cell lines DU145 (human prostate cancer cells) and Mia-PaCa2 (human pancreas cancer cells) were acquired from the American Tissue Culture Collection (Rockville, Md., USA). The cells placed in 80 μl of Dulbecco's Modified Eagle's medium (Gibco-Brl, Cergy-Pontoise, France) completed with 10% foetal calf serum inactivated by heating (Gibco-Brl, Cergy-Pontoise, France), 50,000 units/l of penicillin and 50 mg/l of streptomycin (Gibco-Brl, 10378-057, Cergy-Pontoise, France), and 2 mM of glutamine (Gibco-Brl, Cergy-Pontoise, France) were seeded on a 96-well plate on day 0. The cells were treated on day 1 for 96 hours with increasing concentrations of each of the compounds to be tested up to 10 μM. At the end of this period, quantification of cell proliferation is evaluated by a colorimetric test based on the cleavage of the tetrazolium salt WST1 by the mitochondrial dehydrogenases in viable cells leading to the formation of formazan (Boehringer Mannheim, Meylan, France). These tests are carried out in duplicate with 8 determinations per concentration tested. For each compound to be tested, the values included in the linear part of the sigmoid were retained for a linear regression analysis and used to estimate the inhibitory concentration IC50. The products are solubilized in dimethylsulphoxide (DMSO) at 10^−2 M and used in culture with 0.1% DMSO final.

For data set [2], the system named is Mia-PaCa2 (human pancreas cancer cells). As to the kind of experiment: Antiproliferative activity, WST1 colorimetric test, Mia-PaCa2. The conditions noted are these: MIA PaCa-2, 96 hours treatment, up to 10 μM, read-out: CI50 on the cell proliferation of the lines Mia-Paca2. It is filed as cell-based. On the procedure: as §1, §2

Structures are written as SMILES. Counter-ions that a name gives are not always drawn.

With `Cc1nc2c(s1)C(=O)C=C(NCCCN(C)C)C2=O` [Example 23, 5-{[3-(dimethylamino)propyl]amino}-2-methyl-1,3-benzothiazole-4,7-dione], the IC50 in data set [1] was at most 10 µM. Still for that read-out and setting: under `CN(C)CCNC1=CC(=O)c2sc(CN3CCCCC3)nc2C1=O` [Example 39, 5-{[2-(dimethylamino)ethyl]amino}-2-(piperidin-1-ylmethyl)-1,3-benzothiazole-4,7-dione] stands at most 10 µM.

With `CCc1nc2c(o1)C(=O)C(Cl)=C(Nc1ccccc1)C2=O` [Example 16, 5-anilino-6-chloro-2-ethyl-1,3-benzoxazole-4,7-dione], the melting point is 159 °C. The IC50 in data set [1] was at most 10 µM. Moreover, in data set [2], the IC50 was at most 10 µM. As to `Cc1nc2c(s1)C(=O)C=C(NCC(C)(C)CN(C)C)C2=O` [Example 4, 5-{[3-(dimethylamino)-2,2-dimethylpropyl]amino}-2-methyl-1,3-benzothiazole-4,7-dione], in data set [1], the IC50 was at most 10 µM. Same read-out and setting: under `CCCCCC(CC)NC1=CC(=O)c2sc(C)nc2C1=O` (stereo not shown) [Example 6, 5-[(1-ethylhexyl)amino]-2-methyl-1,3-benzothiazole-4,7-dione] stands at most 10 µM. In the case of `Cc1nc2c(s1)C(=O)C=C(NCCCN)C2=O` [Example 33, 5-[(3-aminopropyl)amino]-2-methyl-1,3-benzothiazole-4,7-dione], the IC50 in data set [1] and in data set [2] was at most 10 µM throughout. On to `CCCCSC1=C(NCCN(C)C)C(=O)c2nc(C)sc2C1=O` [Example 36, 6-(butylthio)-5-{[2-(dimethylamino)ethyl]amino}-2-methyl-1,3-benzothiazole-4,7-dione], for which the IC50 in data set [1] was at most 10 µM. Take `Cc1nc2c(s1)C(=O)C=C(NCCN1CCCC1)C2=O` [Example 19, 2-methyl-5-[(2-pyrrolidin-1-ylethyl)amino]-1,3-benzothiazole-4,7-dione]: the IC50 in data set [1] is at most 10 µM. Same read-out and setting: then `Cc1nc2c(s1)C(=O)C=C(NCCCN(C)C(=O)OC(C)(C)C)C2=O` [Example 30, tert-butyl methyl{3-[(2-methyl-4,7-dioxo-4,7-dihydro-1,3-benzothiazole-5-yl)amino]propyl}carbamate], with at most 10 µM; and `Cc1nc2c(s1)C(=O)C=C(NCCC1CCCN1C)C2=O` (stereo not shown) [Example 24, 2-methyl-5-{[2-(1-methylpyrrolidin-2-yl)ethyl]amino}-1,3-benzothiazole-4,7-dione], with at most 10 µM.

Take `Cc1nc2c(s1)C(=O)C=C(NCCCN1CCN(C)CC1)C2=O` [Example 5, 2-methyl-5-{[3-(4-methyl-1-piperazinyl)propyl]amino}-1,3-benzothiazole-4,7-dione]: the IC50 in data set [1] is at most 10 µM. Molecule `CCc1nc2c(o1)C(=O)C(C)=C(NCCN(C)C)C2=O` [Example 55, 5-{[2-(dimethylamino)ethyl]amino}-2-ethyl-6-methyl-1,3-benzoxazole-4,7-dione] yielded a melting point of 135 °C. In addition, the IC50 in data set [1] was at most 10 µM. Take `Cc1nc2c(s1)C(=O)C=C(NC1CCc3ccccc31)C2=O` (stereo not shown) [Example 28, 5-(2,3-dihydro-1H-inden-1-ylamino)-2-methyl-1,3-benzothiazole-4,7-dione]: in data set [1], the IC50 is at most 10 µM. As for `CN(C)CCNC1=CC(=O)c2sc(CN3CCOCC3)nc2C1=O` [Example 37, 5-{[2-(dimethylamino)ethyl]amino}-2-(morpholin-4-ylmethyl)-1,3-benzothiazole-4,7-dione], the IC50 in data set [1] was at most 10 µM. The same measure, in the same setting: then `Cc1nc2c(s1)C(=O)C=C(NCc1cccs1)C2=O` [Example 8, 2-methyl-5-[(2-thienylmethyl)amino]-1,3-benzothiazole-4,7-dione], with at most 10 µM; and `Cc1nc2c(s1)C(=O)C=C(NCCCN1CCCCC1C)C2=O` (stereo not shown) [Example 25, 2-methyl-5-{[3-(2-methylpiperidin-1-yl)propyl]amino}-1,3-benzothiazole-4,7-dione], with at most 10 µM. Still for that read-out and setting: then `COCCNC1=CC(=O)c2sc(C)nc2C1=O` [Example 18, 5-[(2-methoxyethyl)amino]-2-methyl-1,3-benzothiazole-4,7-dione], with at most 10 µM. Same read-out and setting: under `Cc1nc2c(s1)C(=O)C=C(NCCN(C(C)C)C(C)C)C2=O` [Example 21, 5-{[2-(diisopropylamino)ethyl]amino}-2-methyl-1,3-benzothiazole-4,7-dione] stands at most 10 µM; under `Cc1nc2c(s1)C(=O)C=C(NCCN1CCOCC1)C2=O` [Example 1, 2-methyl-5-{[2-(4-morpholinyl)ethyl]amino}-1,3-benzothiazole-4,7-dione], at most 10 µM; under `CN(C)CCNC1=CC(=O)c2sc(CN3CCN(c4ccccc4)CC3)nc2C1=O` [Example 38], at most 10 µM. On to `Cc1nc2c(s1)C(=O)C=C(NCCN(C)C)C2=O` [Example 2, 5-{[2-(dimethylamino)ethyl]amino}-2-methyl-1,3-benzothiazole-4,7-dione hydrochloride], for which the IC50 in data set [1] was at most 10 µM.

For the molecule `Cc1nc2c(s1)C(=O)C=C(NCCCCN(C)C)C2=O` [Example 26, 5-{[4-(dimethylamino)butyl]amino}-2-methyl-1,3-benzothiazole-4,7-dione], the IC50 in data set [1] is at most 10 µM. Still for that read-out and setting: under `Cc1nc2c(s1)C(=O)C=C(NCCCCCCN(C)C)C2=O` [Example 3, 5-{[6-(dimethylamino)hexyl]amino}-2-methyl-1,3-benzothiazole-4,7-dione] stands at most 10 µM; under `Cc1nc2c(s1)C(=O)C=C(N(CCN(C)C)Cc1ccccc1)C2=O` [Example 29, 5-{benzyl[2-(dimethylamino)ethyl]amino}-2-methyl-1,3-benzothiazole-4,7-dione], at most 10 µM. On the same count and under the same terms, under `Cc1nc2c(s1)C(=O)C=C(NCCCCCN(C)C)C2=O` [Example 27, 5-{[5-(dimethylamino)pentyl]amino}-2-methyl-1,3-benzothiazole-4,7-dione] stands at most 10 µM; under `Cc1nc2c(s1)C(=O)C=C(NCc1cccc(Cl)c1)C2=O` [Example 9, 5-[(3-chlorobenzyl)amino]-2-methyl-1,3-benzothiazole-4,7-dione], at most 10 µM. The same measure, in the same setting: under `Cc1nc2c(s1)C(=O)C=C(NCCN1CCCCC1)C2=O` [Example 20, 2-methyl-5-[(2-piperidin-1-ylethyl)amino]-1,3-benzothiazole-4,7-dione] stands at most 10 µM.

Regarding `CCc1nc2c(o1)C(=O)C=C(Nc1ccc(F)cc1)C2=O` [Example 17, 2-ethyl-5-[(4-fluorophenyl)amino]-1,3-benzoxazole-4,7-dione], the melting point was 232 °C. Also, the IC50 in data set [1] was at most 10 µM. Moreover, in data set [2], the IC50 is at most 10 µM. Take `Cc1nc2c(s1)C(=O)C=C(NCC13CC4CC(CC(C4)C1)C3)C2=O` [Example 7, 5-[(1-adamantylmethyl)amino]-2-methyl-1,3-benzothiazole-4,7-dione]: the IC50 in data set [1] was at most 10 µM.

Consider `Cc1nc2c(s1)C(=O)C=C(NC1CCN(Cc3ccccc3)C1)C2=O` (stereo not shown) [Example 22, 5-[(1-benzylpyrrolidin-3-yl)amino]-2-methyl-1,3-benzothiazole-4,7-dione], for which the IC50 in data set [1] was at most 10 µM. Still for that read-out and setting: under `Cc1nc2c(s1)C(=O)C=C(NCCCNC(=O)OC(C)(C)C)C2=O` [Example 31, tert-butyl 3-[(2-methyl-4,7-dioxo-4,7-dihydro-1,3-benzothiazol-5-yl)amino]propylcarbamate] stands at most 10 µM; under `Cc1nc2c(s1)C(=O)C=C(N1CCN(Cc3ccccc3)CC1)C2=O` [Example 14, 5-(4-benzyl-1-piperazinyl)-2-methyl-1,3-benzothiazole-4,7-dione], at most 10 µM. Turning to `CCc1nc2c(o1)C(=O)C=C(Nc1ccccc1)C2=O` [Example 15, 5-anilino-2-ethyl-4,7-dihydrobenzo[d][1,3]oxazole-4,7-dione], the melting point was determined as 200 °C. Further, the IC50 in data set [1] is at most 10 µM. For the same molecule, the IC50 in data set [2] is at most 10 µM. With `CNCCCNC1=CC(=O)c2sc(C)nc2C1=O` [Example 32, 2-methyl-5-{[3-(methylamino)propyl]amino}-1,3-benzothiazole-4,7-dione hydrochloride], the IC50 in data set [1] is at most 10 µM. The same measure, in the same setting: then `Cc1nc2c(s1)C(=O)C(Cl)=C(NCCN(C)C)C2=O` [Example 34], with at most 10 µM.

These data come from patent US7495021B2, “Benzothiazole- and benzooxazole-4,7-dione, derivatives and their use as cdc25 phosphate inhibitors” (Societe de Conseils de Recherches et d'Applications …, priority 2001, dated 2009).
